# PubChem BioAssay AID1259407 (Chemical Carcinogenesis Research Information System (CCRIS), 2018)
# The source made the active and inactive calls. How the calls were made is not given here.
# System: CCRIS mutagenicity, Ames/micronucleus/aberration tests
# Assay: CCRIS mutagenicity studies
# [1] = Test System: AMES SALMONELLA TYPHIMURIUM, Strain/Indicator: TA98, Metabolic Activation: NONE, Method: PREINCUBATION
# [2] = Test System: AMES SALMONELLA TYPHIMURIUM, Strain/Indicator: TA100, Metabolic Activation: NONE, Method: PREINCUBATION
structure (smiles),measurement,setting,value
Oc1cc(O)cc(O)c1,mutagenic call,"Test System: AMES SALMONELLA TYPHIMURIUM, Strain/Indicator: TA97, Metabolic Activation: NONE, Method: PREINCUBATION",inactive; negative
same,mutagenic call,"Test System: AMES SALMONELLA TYPHIMURIUM, Strain/Indicator: TA97, Metabolic Activation: RAT, LIVER, S-9, PHENOBARBITAL, Method: PREINCUBATION",inactive; negative
same,mutagenic call,"Test System: AMES SALMONELLA TYPHIMURIUM, Strain/Indicator: TA98, Metabolic Activation: NONE",inactive; negative
same,mutagenic call,[1],inactive; negative
same,mutagenic call,"Test System: AMES SALMONELLA TYPHIMURIUM, Strain/Indicator: TA98, Metabolic Activation: RAT, LIVER, S-9, PHENOBARBITAL, Method: PREINCUBATION",inactive; negative
same,mutagenic call,"Test System: AMES SALMONELLA TYPHIMURIUM, Strain/Indicator: TA98, Metabolic Activation: S-9",inactive; negative
same,mutagenic call,[2],inactive; negative
same,mutagenic call,"Test System: AMES SALMONELLA TYPHIMURIUM, Strain/Indicator: TA100, Metabolic Activation: RAT, LIVER, S-9, PHENOBARBITAL, Method: PREINCUBATION",inactive; negative
Fc1ccc(Br)cc1,mutagenic call,"Test System: Mouse lymphoma, Strain/Indicator: L5178Y (tk+/tk-), Metabolic Activation: None, Method: Suspension/plate",inconclusive
same,mutagenic call,"Test System: Mouse lymphoma, Strain/Indicator: L5178Y (tk+/tk-), Metabolic Activation: Rat, Liver, S-9, Aroclor 1254, Method: Suspension/plate",inconclusive
CCCC(=O)C1c2cccc(O)c2C(=O)c2c(O)cccc21,mutagenic call,"Test System: AMES SALMONELLA TYPHIMURIUM, Strain/Indicator: TA1537, Metabolic Activation: NONE, Method: STANDARD PLATE",active; positive
same,mutagenic call,"Test System: AMES SALMONELLA TYPHIMURIUM, Strain/Indicator: TA1537, Metabolic Activation: RAT, LIVER, S-9, PHENOBARBITAL AND BETA-NAPHTHOFLAVONE, Method: STANDARD PLATE",active; positive
same,mutagenic call,"Test System: E. COLI, Strain/Indicator: WP2, Metabolic Activation: NONE, Method: STANDARD PLATE",inactive; negative
same,mutagenic call,"Test System: E. COLI, Strain/Indicator: WP2, Metabolic Activation: RAT, LIVER, S-9, AROCLOR 1254, Method: STANDARD PLATE",inactive; negative
same,mutagenic call,"Test System: E. COLI, Strain/Indicator: WP2 UVRA, Metabolic Activation: NONE, Method: STANDARD PLATE",inactive; negative
same,mutagenic call,"Test System: E. COLI, Strain/Indicator: WP2 UVRA, Metabolic Activation: RAT, LIVER, S-9, AROCLOR 1254, Method: STANDARD PLATE",inactive; negative
CCc1c(Br)c(Br)c(Br)c(Br)c1Br,mutagenic call,"Test System: AMES SALMONELLA TYPHIMURIUM, Strain/Indicator: TA98, Metabolic Activation: HAMSTER, LIVER, S-9, AROCLOR 1254 (10%), Method: PREINCUBATION",inactive; negative
same,mutagenic call,[1],inactive; negative
same,mutagenic call,"Test System: AMES SALMONELLA TYPHIMURIUM, Strain/Indicator: TA98, Metabolic Activation: RAT, LIVER, S-9, AROCLOR 1254 (10%), Method: PREINCUBATION",inactive; negative
same,mutagenic call,"Test System: AMES SALMONELLA TYPHIMURIUM, Strain/Indicator: TA100, Metabolic Activation: HAMSTER, LIVER, S-9, AROCLOR 1254 (10%), Method: PREINCUBATION",inactive; negative
same,mutagenic call,[2],inactive; negative
same,mutagenic call,"Test System: AMES SALMONELLA TYPHIMURIUM, Strain/Indicator: TA100, Metabolic Activation: RAT, LIVER, S-9, AROCLOR 1254 (10%), Method: PREINCUBATION",inactive; negative
same,mutagenic call,"Test System: AMES SALMONELLA TYPHIMURIUM, Strain/Indicator: TA1535, Metabolic Activation: HAMSTER, LIVER, S-9, AROCLOR 1254 (10%), Method: PREINCUBATION",inactive; negative
same,mutagenic call,"Test System: AMES SALMONELLA TYPHIMURIUM, Strain/Indicator: TA1535, Metabolic Activation: NONE, Method: PREINCUBATION",inactive; negative
same,mutagenic call,"Test System: AMES SALMONELLA TYPHIMURIUM, Strain/Indicator: TA1535, Metabolic Activation: RAT, LIVER, S-9, AROCLOR 1254 (10%), Method: PREINCUBATION",inactive; negative
same,mutagenic call,"Test System: AMES SALMONELLA TYPHIMURIUM, Strain/Indicator: TA1537, Metabolic Activation: HAMSTER, LIVER, S-9, AROCLOR 1254 (10%), Method: PREINCUBATION",inactive; negative
same,mutagenic call,"Test System: AMES SALMONELLA TYPHIMURIUM, Strain/Indicator: TA1537, Metabolic Activation: NONE, Method: PREINCUBATION",inactive; negative
same,mutagenic call,"Test System: AMES SALMONELLA TYPHIMURIUM, Strain/Indicator: TA1537, Metabolic Activation: RAT, LIVER, S-9, AROCLOR 1254 (10%), Method: PREINCUBATION",inactive; negative
O=[N+]([O-])c1cccc2c1-c1ccc3ccc4cccc5cc-2c1c3c45,mutagenic call,"Test System: AMES SALMONELLA TYPHIMURIUM, Strain/Indicator: TA98, Metabolic Activation: RAT, LIVER, S-9, AROCLOR 1254, Method: PREINCUBATION",active; positive
same,mutagenic call,"Test System: AMES SALMONELLA TYPHIMURIUM, Strain/Indicator: TA100, Metabolic Activation: RAT, LIVER, S-9, AROCLOR 1254, Method: PREINCUBATION",active; positive
